Patent US20240409536A1, “COMPOUNDS AND METHODS FOR MODULATING SPLICING” (REMIX THERAPEUTICS INC., priority 2021, published 2024)
Structures can show the parent of a compound that is named as a salt.

How the values were obtained:
HiBiT-tagged MYB protein = experiment: HiBiT protein abundance assay, MYB (K562 HiBiT knock-in cells); format: cell-based, human; conditions: 24 hours
Outline: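 K562 cells with endogenous HiBiT knock-in tag, 10-point 3-fold dilutions (top 10 μM final, ≤0.25% DMSO), 24 h at 37 °C. Lytic Nano-Glo HiBiT luminescence, normalized to DMSO and unmodified K562 baselines; IC50 is concentration giving 50% protein abundance from four-parameter fit.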

MYB mRNA = experiment: Splicing RT-qPCR assay, MYB canonical (CJ) and alternative (AJ) junction mRNA; format: cell-based; conditions: Homo sapiens, A673 or K562 cells, 24 hours; for IC50: decrease in canonical junction mRNA; for AC50: increase in alternative junction mRNA
Outline: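 Splice switching was scored by qPCR detection of the new alternative-exon junction (AJ) alongside the canonical junction (CJ). Cell lines A673 or K562 received compound 24 h, top dose 10 uM final.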

Target C = experiment: HiBiT protein abundance assay, Target C (K562 HiBiT knock-in cells); format: cell-based, human; conditions: 24 hours
Outline: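 K562 knock-in cells (10000/well, IMDM+1% FBS) treated 24 h at 37 °C with 10-point 3-fold dilutions, top final 10 μM, DMSO ≤0.25%. HiBiT lytic luminescence read; response normalized to unmodified K562 and DMSO-treated controls. IC50 interpolated at 50% abundance by four-parameter logistic fit.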

Row | SMILES | IC50 (HiBiT-tagged MYB protein) [nM] | IC50 (MYB mRNA) [nM] | IC50 (Target C) [nM] | AC50 (MYB mRNA) [nM]
1 | Cc1cn2cc(NC(=O)c3ccc(N4CCNC5(CC5)C4)c4nccnc34)cc(F)c2n1 [Compound 218, 8-{4,7-diazaspiro[2.5]octan-7-yl}-N-{8-fluoro-2-methylimidazo[1,2-a]pyridin-6-yl}quinoxaline-5-carboxamide] | < 100 | < 100 | 1000 to 10000 | < 100
2 | Cc1cn2nc(NC(=O)c3ccc(N4CCNCC4)c4ccnnc34)cc2c(C)n1 [Compound 123] | 1000 to 10000 | 1000 to 10000 | 1000 to 10000 | 1000 to 10000
3 | COc1nc(NC(=O)c2ccc(N3CCNCC3)c3ccnnc23)cn2cc(C)nc12 [Compound 179, N-{8-methoxy-2-methylimidazo[1,2-a]pyrazin-6-yl}-5-(piperazin-1-yl)cinnoline-8-carboxamide] | < 100 | < 100 | > 10000 | < 100
4 | Cc1cn2cc(NC(=O)c3ccc(N4CCN[C@H](C)C4)c4ccnnc34)cc(F)c2n1 [Compound 146] | < 100 | < 100 | 1000 to 10000 | < 100
5 | Cc1cn2cc(NC(=O)c3ccc(N4CCNCC4)c4nnccc34)cc(F)c2n1 [Compound 166, N-(8-fluoro-2-methylimidazo[1,2-a]pyridin-6-yl)-8-(piperazin-1-yl)cinnoline-5-carboxamide 2,2,2-trifluoroacetate] | > 10000 | > 10000 | > 10000 | > 10000
6 | Cc1cn2cc(NC(=O)c3ccc(N4CCNC5(CCOC5)C4)c4nccnc34)cc(F)c2n1 (stereo not drawn) [Compound 373] | 100 to 1000 | 100 to 1000 | 1000 to 10000 | 1000 to 10000
7 | Cc1cn2cc(NC(=O)c3ccc(N4CCNC5(CC5)C4)c4ccnnc34)cc(F)c2n1 [Compound 105] | 100 to 1000 | 100 to 1000 | 1000 to 10000 | 100 to 1000
8 | Cc1cn2cc(NC(=O)c3ccc(N4CCNCC4)c4ccnnc34)cc(C(C)O)c2n1 (stereo not drawn) [Compound 182, N-[8-(1-hydroxyethyl)-2-methylimidazo[1,2-a]pyridin-6-yl]-5-(piperazin-1-yl)cinnoline-8-carboxamide trifluoroacetate] | > 10000 | > 10000 | > 10000 | > 10000
9 | Cc1cn2cc(NC(=O)c3ccc(N4C[C@@H](C)NC5(CC5)C4)c4nccnc34)cc(F)c2n1 [Compound 376] | 100 to 1000 | 100 to 1000 | > 10000 | 100 to 1000
10 | CC[C@H]1CN(c2ccc(C(=O)Nc3cc(F)c4nc(C)cn4c3)c3nnccc23)CCN1 [Compound 152] | < 100 | 100 to 1000 | > 10000 | 100 to 1000
11 | COc1ccc2c(N3CCNCC3)ccc(C(=O)Nc3cc(F)c4nc(C)cn4c3)c2n1 [Compound 169, N-{8-fluoro-2-methylimidazo[1,2-a]pyridin-6-yl}-2-methoxy-5-(piperazin-1-yl)quinoline-8-carboxamide] | < 100 | < 100 | 1000 to 10000 | < 100
12 | Cc1cn2cc(NC(=O)c3ccc(C4CCNCC4)c4nccnc34)cc(F)c2n1 [Compound 371] | 100 to 1000 | 100 to 1000 | 100 to 1000 | < 100
13 | Cc1cn2cc(NC(=O)c3ccc(N(C)[C@@H]4C[C@H]5CC[C@@H](C4)N5)c4ccnnc34)cc(F)c2n1 [Compound 156] | 1000 to 10000 | 1000 to 10000 | > 10000 | 1000 to 10000
14 | Cc1cn2cc(NC(=O)c3ccc(N4CCNCC4)c4cccnc34)cc(F)c2n1 [Compound 165, N-{8-fluoro-2-methylimidazo[1,2-a]pyridin-6-yl}-5-(piperazin-1-yl)quinoline-8-carboxamide] | < 100 | < 100 | 1000 to 10000 | < 100
15 | Cc1cn2cc(NC(=O)c3ccc(N4CCN(C)[C@H](C)C4)c4ccnnc34)cc(F)c2n1 [Compound 149] | < 100 | < 100 | 1000 to 10000 | 100 to 1000

More lines, main results first:

Row | IC50 (HiBiT-tagged MYB protein) [nM] | IC50 (MYB mRNA) [nM] | IC50 (Target C) [nM] | SMILES | AC50 (MYB mRNA) [nM]
16 | < 100 | < 100 | 1000 to 10000 | Cc1cn2cc(NC(=O)c3ccc(N4CCC5(CCN5)CC4)c4nccnc34)cc(F)c2n1 [Compound 189, 8-{1,7-diazaspiro[3.5]nonan-7-yl}-N-{8-fluoro-2-methylimidazo[1,2-a]pyridin-6-yl}quinoxaline-5-carboxamide] | 100 to 1000
17 | 100 to 1000 | 100 to 1000 | 1000 to 10000 | CNC1CCN(c2ccc(C(=O)Nc3cc(F)c4nc(C)cn4c3)c3nccnc23)C1 (stereo not drawn) [Compound 190, N-{8-fluoro-2-methylimidazo[1,2-a]pyridin-6-yl}-8-[3-(methylamino)pyrrolidin-1-yl]quinoxaline-5-carboxamide] | < 100
18 | < 100 | 100 to 1000 | 1000 to 10000 | Cc1ccc2c(N3CCC(N(C)C)CC3)ccc(C(=O)Nc3cc(F)c4nc(C)cn4c3)c2n1 [Compound 215, 5-[4-(dimethylamino)piperidin-1-yl]-N-{8-fluoro-2-methylimidazo[1,2-a]pyridin-6-yl}-2-methylquinoline-8-carboxamide] | 100 to 1000
19 | < 100 | 100 to 1000 | 1000 to 10000 | Cc1cnc2c(N3C[C@@H](C)N[C@@H](C)C3)ccc(C(=O)Nc3cc(F)c4nc(C)cn4c3)c2n1 [Compound 216, 8-((3R,5S)-3,5-dimethylpiperazin-1-yl)-N-{8-fluoro-2-methylimidazo[1,2-a]pyridin-6-yl}-3-methylquinoxaline-5-carboxamide] | < 100
20 | 1000 to 10000 | 1000 to 10000 | 1000 to 10000 | CNCC1CCN(c2ccc(C(=O)Nc3cc(F)c4nc(C)cn4c3)c3nccnc23)CC1 [Compound 192, N-{8-fluoro-2-methylimidazo[1,2-a]pyridin-6-yl}-8-{4-[(methylamino)methyl]piperidin-1-yl}quinoxaline-5-carboxamide trifluoroacetate] | 1000 to 10000
21 | < 100 | < 100 | 100 to 1000 | Cc1cnc2c(N3CCC(N(C)C)CC3)ccc(C(=O)Nc3cc(F)c4nc(C)cn4c3)c2n1 [Compound 200, 8-[4-(dimethylamino)piperidin-1-yl]-N-{8-fluoro-2-methylimidazo[1,2-a]pyridin-6-yl}-3-methylquinoxaline-5-carboxamide] | < 100
22 | < 100 | 100 to 1000 | 100 to 1000 | COc1cnc2c(N3CCC(N(C)C)CC3)ccc(C(=O)Nc3cc(F)c4nc(C)cn4c3)c2n1 [Compound 206, 8-[4-(dimethylamino)piperidin-1-yl]-N-{8-fluoro-2-methylimidazo[1,2-a]pyridin-6-yl}-3-methoxyquinoxaline-5-carboxamide; trifluoroacetic acid] | 100 to 1000
23 | < 100 | < 100 | 1000 to 10000 | Cc1cnc2c(C(=O)Nc3cc(F)c4nc(C)cn4c3)ccc(N3CCC(N(C)C)CC3)c2n1 [Compound 208, 8-[4-(dimethylamino)piperidin-1-yl]-N-{8-fluoro-2-methylimidazo[1,2-a]pyridin-6-yl}-2-methylquinoxaline-5-carboxamide; bis(trifluoroacetic acid)] | < 100
24 | < 100 | 100 to 1000 | 1000 to 10000 | CN[C@@H]1CCN(c2ccc(C(=O)Nc3cc(F)c4nc(C)cn4c3)c3nccnc23)C1 (single isomer, unassigned) [Compound 193, N-{8-fluoro-2-methylimidazo[1,2-a]pyridin-6-yl}-8-[3-(methylamino)pyrrolidin-1-yl]quinoxaline-5-carboxamide] | 100 to 1000
